Data: PubChem BioAssay AID2060616 (Molecular Pharmacology Branch, DTP, NCI, 2025)

System: 377384-186-R-J1-PDC complex spheroid viability
Experiment: Anticancer human tumor 377384-186-R-J1-PDC patient-derived pancreatic carcinoma cell line growth inhibition [CLK]
Conditions: for IC50: curve of first compound; for viability, T/C: stronger effect = lower value
Source text: A high-throughput screen of multi-cell type tumor spheroids was designed to identify active combinations of […] and targeted small molecules. Complex spheroids include a stromal component modeled by human endothelial cells (HUVEC) and fibroblasts modeled by human mesenchymal stem cells (MSCs). The concentration ranges selected for each drug and investigational agent were based upon clinically achievable concentrations if the clinical Cmax of the agent was known.
Compounds. The drugs and investigational agents: cirtuvivint (SM08502; NSC835563), CC-671 (NSC850746), vemurafenib (NSC761431), tapotoclax (NSC804041), sotorasib (NSC818433), adagrasib (NSC831453), MRTX-1133 (NSC836407), BAY2416964 (NSC825713), copanlisib (NSC816437), inavolisib (NSC800729), abemaciclib (NSC768073), osimertinib (NSC779217), entinostat (NSC756642), eltanexor (KPT-8602, NSC794443), venetoclax (NSC766270), ceralasertib (NSC777638), bortezomib (NSC756655), olaparib (NSC753686), talazoparib (NSC767125), alisertib (NSC759677), peposertib (NSC802822), gemcitabine (NSC613327), 5-fluorouracil (NSC19893), SN-38 (NSC673596), oxaliplatin (NSC266046), paclitaxel (NSC125973), and doxorubicin (NSC123127), were obtained from the National Cancer Institute (NCI) Developmental Therapeutics Program Chemical Repository. The FDA-approved anticancer drug set is available from the Developmental Therapeutics Program at https://dtp.cancer.gov/organization/dscb/obtaining/available plates.htm. […] The stock solutions were prepared in dimethyl sulfoxide (DMSO, Sigma-Aldrich, St. Louis, MO, cat. D2650), except for the platinum complexes which were prepared in saline (Quality Biological, Gaithersburg, MD, cat. 114-055-101), at 800-fold the tested concentration and stored at -70 degrees C prior to their use. All drugs and investigational agents were tested over a range starting from a high concentration at or near the clinical Cmax and decreasing in half-log increments. If the clinical Cmax for an agent had not been determined, the highest concentration tested was 10 microM.
Cell Culture. All cells were maintained in an incubator at 37 degrees C and 5% CO2 with 95% humidity. The PDC lines were cultured according to standard operating procedures established by the NCI PDMR. Briefly, all PDCs were thawed and cultured in Matrigel-coated flasks prepared with a working solution of 1X Ham's F-12 nutrient mix, without supplementation (Invitrogen, Waltham, MA, cat. 11765054), 100 U/mL penicillin-streptomycin (Invitrogen, cat. 15140122), and 2.5% Matrigel (Corning Inc., Corning, NY, cat. 354248) for the first three passages. The 947758-054-R-J2-PDC line was cultured in 6B/Colon 1A media, which includes advanced DMEM/F-12 (Thermo Fisher Scientific, cat. 12634028), 10 mM HEPES (Thermo Fisher Scientific, cat. 15630080), 1X GlutaMAX supplement (Thermo Fisher Scientific, cat. 35050061), 0.1 mg/mL primocin (InvivoGen, cat. ant-pm-2), 10% defined fetal bovine serum, heat inactivated (HyClone Laboratories Inc., cat. SH30070.03HI), 1.25 mM N-Acetyl-L-cysteine (Sigma-Aldrich, cat. A9165), 10 mM nicotinamide (Sigma-Aldrich, cat. N0636), 1X B-27 supplement (Thermo Fisher Scientific, cat. 17504044), 1X N-2 supplement (Thermo Fisher Scientific, cat. 17502048), and 10 microM Y-27632 dihydrochloride (Tocris Bioscience, cat. 1254). The 876862-298-R-J1-PDC was cultured in 6E media, which includes all 6B/Colon 1A media components plus 50% L-WRN conditioned media (ATCC, cat. CRL-3276), 50 ng/mL recombinant human EGF recombinant protein (hEGF; Thermo Fisher Scientific, cat. PHG0311), 10 ng/mL recombinant human fibroblast growth factor 10 (hGFG-10; PeproTech, cat. 100-26), 1 ng/mL recombinant human fibroblast growth factor 2 (hFGF-2; PeproTech, cat. 100-18B), and 1 µM prostaglandin E2 (PGE2; Tocris, cat. 2296). The 227483-062-R1-J1-PDC line was cultured in Panc media, containing all 6E components except hFGF-2, with the addition of 500 nM SB-431542 (Selleckchem, cat. S1067) and 10 nM gastrin (Tocris, cat. 3006). […]

[1] = second compound 0.0316 µM, first compound 0.0316 µM
[2] = second compound 0.0316 µM, first compound 0.1 µM
[3] = second compound 0.0316 µM, first compound 0.316 µM
[4] = second compound 0.0316 µM, first compound 1 µM
[5] = second compound 0.0316 µM, first compound 3.16 µM
[6] = second compound 0.0316 µM, first compound 10 µM
[7] = second compound 0.1 µM, first compound 0.0316 µM
[8] = second compound 0.1 µM, first compound 0.1 µM
[9] = second compound 0.1 µM, first compound 0.316 µM
[10] = second compound 0.1 µM, first compound 1 µM
[11] = second compound 0.1 µM, first compound 3.16 µM
[12] = second compound 0.1 µM, first compound 10 µM
[13] = second compound 0.316 µM, first compound 0.0316 µM
[14] = second compound 0.316 µM, first compound 0.1 µM
[15] = second compound 0.316 µM, first compound 0.316 µM
[16] = second compound 0.316 µM, first compound 1 µM
[17] = second compound 0.316 µM, first compound 3.16 µM
[18] = second compound 0.316 µM, first compound 10 µM
[19] = second compound 1 µM, first compound 0.0316 µM
[20] = second compound 1 µM, first compound 0.1 µM
[21] = second compound 1 µM, first compound 0.316 µM
[22] = second compound 1 µM, first compound 1 µM
[23] = second compound 1 µM, first compound 3.16 µM
[24] = second compound 1 µM, first compound 10 µM
[25] = second compound 3.16 µM, first compound 0.0316 µM
[26] = second compound 3.16 µM, first compound 0.1 µM
[27] = second compound 3.16 µM, first compound 0.316 µM
[28] = second compound 3.16 µM, first compound 1 µM
[29] = second compound 3.16 µM, first compound 3.16 µM
[30] = second compound 3.16 µM, first compound 10 µM
[31] = second compound 10 µM, first compound 0.0316 µM
[32] = second compound 10 µM, first compound 0.1 µM
[33] = second compound 10 µM, first compound 0.316 µM
[34] = second compound 10 µM, first compound 1 µM
[35] = second compound 10 µM, first compound 3.16 µM
[36] = second compound 10 µM, first compound 10 µM
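Note: spheroids exposed to agents for 7 days before reading.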
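Throughout, for viability, T/C: luminescence signal used as a stand-in for viable cells.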

CCCS(=O)(=O)Nc1ccc(F)c(C(=O)c2c[nH]c3ncc(-c4ccc(Cl)cc4)cc23)c1F + CN1CCN(c2cc(C(=O)Nc3cc4cc(-c5cnn(C)c5)ccc4cn3)ccn2)CC1
IC50 (second compound 0.0316 µM): > 10000 nM | IC50 (second compound 0.1 µM): 8850 nM | IC50 (second compound 0.316 µM): < 31.6 nM | IC50 (second compound 1 µM): < 31.6 nM | IC50 (second compound 3.16 µM): < 31.6 nM | IC50 (second compound 10 µM): < 31.6 nM | viability, T/C [1]: 122% | viability, T/C [2]: 122% | viability, T/C [3]: 141% | viability, T/C [4]: 140% | viability, T/C [5]: 117% | viability, T/C [6]: 64.8% | viability, T/C [7]: 117% | viability, T/C [8]: 78.5% | viability, T/C [9]: 135% | viability, T/C [10]: 121% | viability, T/C [11]: 97.1% | viability, T/C [12]: 44.4% | viability, T/C [13]: 34.8% | viability, T/C [14]: 21.6% | viability, T/C [15]: 31.2% | viability, T/C [16]: 33.4% | viability, T/C [17]: 28.9% | viability, T/C [18]: 15.4% | viability, T/C [19]: 1.07% | viability, T/C [20]: 3.44% | viability, T/C [21]: 1.53% | viability, T/C [22]: 1.74% | viability, T/C [23]: 1.66% | viability, T/C [24]: 1.39% | viability, T/C [25]: 0.5% | viability, T/C [26]: 0.57% | viability, T/C [27]: 1.26% | viability, T/C [28]: 0.82% | viability, T/C [29]: 0.51% | viability, T/C [30]: 0.48% | viability, T/C [31]: 0.54% | viability, T/C [32]: 0.62% | viability, T/C [33]: 0.58% | viability, T/C [34]: 0.68% | viability, T/C [35]: 0.66% | viability, T/C [36]: 0.26%

COC1C=CCC(C)C(C)S(=O)(=O)NC(=O)c2ccc3c(c2)N(CC2CCC21)CC1(CCCc2cc(Cl)ccc21)CO3 (centres undefined) + CN1CCN(c2cc(C(=O)Nc3cc4cc(-c5cnn(C)c5)ccc4cn3)ccn2)CC1
IC50 (second compound 0.0316 µM): 5480 nM | IC50 (second compound 0.1 µM): 4950 nM | IC50 (second compound 0.316 µM): < 31.6 nM | IC50 (second compound 1 µM): < 31.6 nM | IC50 (second compound 3.16 µM): < 31.6 nM | IC50 (second compound 10 µM): < 31.6 nM | viability, T/C [1]: 114% | viability, T/C [2]: 95.2% | viability, T/C [3]: 96.5% | viability, T/C [4]: 102% | viability, T/C [5]: 84.9% | viability, T/C [6]: 11.8% | viability, T/C [7]: 115% | viability, T/C [8]: 69.2% | viability, T/C [9]: 98% | viability, T/C [10]: 84.5% | viability, T/C [11]: 76.8% | viability, T/C [12]: 10.2% | viability, T/C [13]: 32.5% | viability, T/C [14]: 20.9% | viability, T/C [15]: 24.3% | viability, T/C [16]: 20% | viability, T/C [17]: 20.5% | viability, T/C [18]: 3.02% | viability, T/C [19]: 0.47% | viability, T/C [20]: 1.66% | viability, T/C [21]: 1.4% | viability, T/C [22]: 1.15% | viability, T/C [23]: 0.84% | viability, T/C [24]: 0.75% | viability, T/C [25]: 0.58% | viability, T/C [26]: 0.33% | viability, T/C [27]: 0.31% | viability, T/C [28]: 0.37% | viability, T/C [29]: 0.49% | viability, T/C [30]: 0.39% | viability, T/C [31]: 0.42% | viability, T/C [32]: 0.68% | viability, T/C [33]: 0.44% | viability, T/C [34]: 0.59% | viability, T/C [35]: 0.53% | viability, T/C [36]: 0.17%
